# Measured values from patent US12653894B2, “Degradation of FAK or FAK and ALK by conjugation of FAK and ALK inhibitors with E3 ligase ligands and methods of use” (DANA-FARBER CANCER INSTITUTE, INC., priority 2018, dated 2026).
# Where two headings read alike, the source gives them in different places.
# How the values were obtained:
# [1] = target: T1, FAK (Homo sapiens, UniProt Q05397); assay: FAK degradation by immunoblot in PA-TU-8988T cells; assay type: cell-based; set-up: endogenous in cells; host or cells: PA-TU-8988T; conditions: for Degradation of FAK protein (in words): 0.1 nM to 1000 nM; for Degradation of FAK protein (in words) / Concentration at which degradation of FAK protein is evident / Concentration of maximal degradation of FAK protein / Concentration giving modest degradation of FAK protein: immunoblot; for inhibition at 0.01 µM / inhibition at 0.1 µM: PaTu 8988t; for inhibition at 0.01 µM: read-out: Degradation at 10 nM; for inhibition at 0.1 µM: read-out: Degradation at 100 nM
# Description: (§1) Immunoblotting for FAK was performed to evaluate changes in protein levels upon FAK degrader treatment. All samples were run with equal total protein content and immunoblotting was performed using antibodies that detect total FAK protein as well as GAPDH or α-Tubulin as a loading control. Fluorescently labelled infrared secondary antibodies that enable detection using an Odyssey® CLx Imager was employed to evaluate protein levels.
# FAK degraders were evaluated in immunoblot assays to determine the effective dose required to achieve FAK protein loss. Immunoblots for FAK protein were normalized relative to the loading control and percent degradation was evaluated compared to DMSO treatment.
# [2] = target: T1, FAK; assay: FAK degradation by immunoblot in H3122 cells; assay type: cell-based; set-up: endogenous in cells; host or cells: H3122; conditions: 10 nM to 1000 nM, 16 hours (compound 10) or 24 hours (compounds 1, 9)
# [3] = target: T2, ALK (Homo sapiens, UniProt Q9UM73); assay: ALK degradation by immunoblot in H3122 cells; assay type: cell-based; set-up: endogenous in cells; host or cells: H3122; the other entry of the earlier key: EML4 (Q9HC35, Echinoderm microtubule-associated protein-like 4); conditions: 10 nM to 1000 nM, 16 hours (compound 10) or 24 hours (compounds 1, 9)
# Target sequence in this assay (Q9UM73 with tags, fused parts or gaps): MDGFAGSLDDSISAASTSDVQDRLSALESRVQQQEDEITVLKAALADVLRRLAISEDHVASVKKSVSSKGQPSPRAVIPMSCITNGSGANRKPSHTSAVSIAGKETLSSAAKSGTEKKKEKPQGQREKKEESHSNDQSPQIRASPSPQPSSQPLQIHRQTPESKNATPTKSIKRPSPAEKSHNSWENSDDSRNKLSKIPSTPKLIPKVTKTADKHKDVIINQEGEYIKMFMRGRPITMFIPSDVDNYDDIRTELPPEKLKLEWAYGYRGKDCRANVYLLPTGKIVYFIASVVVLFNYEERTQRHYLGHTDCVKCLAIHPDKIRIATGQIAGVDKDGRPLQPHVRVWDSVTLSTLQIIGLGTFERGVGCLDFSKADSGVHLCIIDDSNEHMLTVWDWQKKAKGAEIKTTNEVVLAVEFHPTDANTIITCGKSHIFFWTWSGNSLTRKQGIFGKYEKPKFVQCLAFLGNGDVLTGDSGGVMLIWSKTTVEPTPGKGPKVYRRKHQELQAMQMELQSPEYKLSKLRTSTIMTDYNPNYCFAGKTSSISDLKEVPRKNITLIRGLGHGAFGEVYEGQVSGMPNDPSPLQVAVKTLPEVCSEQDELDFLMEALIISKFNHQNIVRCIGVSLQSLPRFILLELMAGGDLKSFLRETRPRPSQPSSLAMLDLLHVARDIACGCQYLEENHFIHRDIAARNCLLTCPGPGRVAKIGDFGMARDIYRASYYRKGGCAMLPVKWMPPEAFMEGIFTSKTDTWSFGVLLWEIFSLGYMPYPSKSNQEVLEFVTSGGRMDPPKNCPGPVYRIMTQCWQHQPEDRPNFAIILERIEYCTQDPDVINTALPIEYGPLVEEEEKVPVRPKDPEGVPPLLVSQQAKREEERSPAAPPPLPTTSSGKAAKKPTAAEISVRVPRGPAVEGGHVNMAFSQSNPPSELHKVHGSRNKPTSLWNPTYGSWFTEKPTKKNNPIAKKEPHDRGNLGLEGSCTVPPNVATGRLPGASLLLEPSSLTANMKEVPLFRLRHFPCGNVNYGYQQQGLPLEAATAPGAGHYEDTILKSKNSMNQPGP
# Target sequence in this assay (Q96SW2 whole entry partner): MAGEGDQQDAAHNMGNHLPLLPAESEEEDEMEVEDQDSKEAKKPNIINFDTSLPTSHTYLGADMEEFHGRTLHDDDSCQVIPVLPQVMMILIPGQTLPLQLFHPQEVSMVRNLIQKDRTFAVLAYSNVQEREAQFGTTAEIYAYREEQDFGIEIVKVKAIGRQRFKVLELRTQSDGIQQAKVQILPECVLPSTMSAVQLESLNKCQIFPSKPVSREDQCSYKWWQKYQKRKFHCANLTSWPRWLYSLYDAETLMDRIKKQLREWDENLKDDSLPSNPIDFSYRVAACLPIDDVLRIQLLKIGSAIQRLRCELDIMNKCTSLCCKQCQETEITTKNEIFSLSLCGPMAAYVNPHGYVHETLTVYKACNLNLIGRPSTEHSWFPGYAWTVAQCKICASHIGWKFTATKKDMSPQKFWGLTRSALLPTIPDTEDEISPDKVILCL
# [4] = target: T1, FAK; assay: Rescue of compound 9-induced FAK degradation in PA-TU-8988T cells after pre-treatment; assay type: cell-based; set-up: endogenous in cells; host or cells: PA-TU-8988T; conditions: pre-treatment 2 hours (0.5 μM carfilzomib, 1.0 μM MLN4924, 10 μM lenalidomide, 10 μM compound 13), then 10 nM compound 9 for 4 hours
# Description: as §1, with “PA-TU-8988T cells were treated with FAK degraders or indicated inhibitors for four hours at the indicated doses. After four hours, PA-TU-8988T cells were lysed in radioimmunoprecipitation assay (RIPA) buffer (Thermo Scientific™) on ice for 60 minutes and lysates were clarified by centrifugation. Immunoblotting” for “Immunoblotting”
# [5] = target: T2, ALK; assay: In vitro kinase assay (Life Technologies), ALK; set-up: purchased Life Technologies; conditions: ATP concentration = Km, duplicate; read-out: Biochemical IC50 ALK
# Description: (§2) In vitro kinase assays with inventive compound 13 and VS-4718 were performed by Life Technologies™ in duplicate at an ATP concentration=Km for each indicated kinase. The results are summarized in Table 2 and indicate that inventive compound 13 maintained potent FAK activity, with improved activity on ALK as compared to VS-4718.
# Target sequence in this assay (Q9UM73 19-1620): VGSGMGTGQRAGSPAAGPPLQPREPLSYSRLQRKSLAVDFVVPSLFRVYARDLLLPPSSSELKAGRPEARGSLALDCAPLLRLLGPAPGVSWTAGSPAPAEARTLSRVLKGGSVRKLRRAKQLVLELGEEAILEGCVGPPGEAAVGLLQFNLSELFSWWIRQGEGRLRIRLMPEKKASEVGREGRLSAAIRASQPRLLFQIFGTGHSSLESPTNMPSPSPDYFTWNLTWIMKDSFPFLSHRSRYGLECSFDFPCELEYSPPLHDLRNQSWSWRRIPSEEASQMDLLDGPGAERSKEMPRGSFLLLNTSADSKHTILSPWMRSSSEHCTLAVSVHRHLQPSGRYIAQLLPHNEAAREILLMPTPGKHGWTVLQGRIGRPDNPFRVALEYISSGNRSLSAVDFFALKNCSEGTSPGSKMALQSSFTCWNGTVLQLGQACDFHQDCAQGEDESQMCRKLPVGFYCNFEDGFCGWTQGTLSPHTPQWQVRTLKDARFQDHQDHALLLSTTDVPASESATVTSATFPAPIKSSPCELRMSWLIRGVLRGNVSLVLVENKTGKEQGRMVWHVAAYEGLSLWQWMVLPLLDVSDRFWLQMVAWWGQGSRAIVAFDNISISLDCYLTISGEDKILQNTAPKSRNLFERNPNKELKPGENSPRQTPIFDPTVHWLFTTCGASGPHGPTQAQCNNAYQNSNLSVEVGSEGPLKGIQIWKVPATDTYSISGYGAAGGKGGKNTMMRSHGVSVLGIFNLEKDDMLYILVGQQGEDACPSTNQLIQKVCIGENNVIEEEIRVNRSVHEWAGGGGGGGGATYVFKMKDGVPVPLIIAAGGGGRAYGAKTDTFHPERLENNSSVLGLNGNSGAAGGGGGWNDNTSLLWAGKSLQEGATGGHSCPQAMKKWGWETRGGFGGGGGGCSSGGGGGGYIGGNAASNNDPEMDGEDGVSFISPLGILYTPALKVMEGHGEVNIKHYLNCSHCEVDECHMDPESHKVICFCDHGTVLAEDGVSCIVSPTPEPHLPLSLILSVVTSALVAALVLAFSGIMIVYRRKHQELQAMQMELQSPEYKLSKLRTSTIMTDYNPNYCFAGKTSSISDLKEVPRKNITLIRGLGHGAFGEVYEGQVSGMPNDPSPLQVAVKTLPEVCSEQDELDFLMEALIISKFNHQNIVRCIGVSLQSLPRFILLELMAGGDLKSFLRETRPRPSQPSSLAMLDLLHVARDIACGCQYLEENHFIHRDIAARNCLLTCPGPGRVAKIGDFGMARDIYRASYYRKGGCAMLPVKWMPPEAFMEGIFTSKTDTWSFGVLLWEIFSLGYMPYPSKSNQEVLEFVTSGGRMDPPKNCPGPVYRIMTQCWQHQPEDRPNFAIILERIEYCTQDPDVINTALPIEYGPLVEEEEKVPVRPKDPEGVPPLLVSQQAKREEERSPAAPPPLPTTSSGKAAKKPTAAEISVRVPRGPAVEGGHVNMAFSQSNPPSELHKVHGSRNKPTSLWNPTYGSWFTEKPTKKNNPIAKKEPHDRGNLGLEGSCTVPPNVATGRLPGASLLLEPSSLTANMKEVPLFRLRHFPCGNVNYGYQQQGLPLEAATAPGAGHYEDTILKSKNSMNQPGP
# [6] = target: T1, FAK; assay: In vitro kinase assay (Life Technologies), FAK; conditions: ATP concentration = Km, duplicate; read-out: Biochemical IC50 FAK
# Description: as §2
# [7] = total FAK protein, PA-TU-8988T cells, 10 nM, 4 hours, vs DMSO
# [8] = total FAK protein, PA-TU-8988T cells, 100 nM, 4 hours, vs DMSO
# T1 sequence (Q05397 whole entry): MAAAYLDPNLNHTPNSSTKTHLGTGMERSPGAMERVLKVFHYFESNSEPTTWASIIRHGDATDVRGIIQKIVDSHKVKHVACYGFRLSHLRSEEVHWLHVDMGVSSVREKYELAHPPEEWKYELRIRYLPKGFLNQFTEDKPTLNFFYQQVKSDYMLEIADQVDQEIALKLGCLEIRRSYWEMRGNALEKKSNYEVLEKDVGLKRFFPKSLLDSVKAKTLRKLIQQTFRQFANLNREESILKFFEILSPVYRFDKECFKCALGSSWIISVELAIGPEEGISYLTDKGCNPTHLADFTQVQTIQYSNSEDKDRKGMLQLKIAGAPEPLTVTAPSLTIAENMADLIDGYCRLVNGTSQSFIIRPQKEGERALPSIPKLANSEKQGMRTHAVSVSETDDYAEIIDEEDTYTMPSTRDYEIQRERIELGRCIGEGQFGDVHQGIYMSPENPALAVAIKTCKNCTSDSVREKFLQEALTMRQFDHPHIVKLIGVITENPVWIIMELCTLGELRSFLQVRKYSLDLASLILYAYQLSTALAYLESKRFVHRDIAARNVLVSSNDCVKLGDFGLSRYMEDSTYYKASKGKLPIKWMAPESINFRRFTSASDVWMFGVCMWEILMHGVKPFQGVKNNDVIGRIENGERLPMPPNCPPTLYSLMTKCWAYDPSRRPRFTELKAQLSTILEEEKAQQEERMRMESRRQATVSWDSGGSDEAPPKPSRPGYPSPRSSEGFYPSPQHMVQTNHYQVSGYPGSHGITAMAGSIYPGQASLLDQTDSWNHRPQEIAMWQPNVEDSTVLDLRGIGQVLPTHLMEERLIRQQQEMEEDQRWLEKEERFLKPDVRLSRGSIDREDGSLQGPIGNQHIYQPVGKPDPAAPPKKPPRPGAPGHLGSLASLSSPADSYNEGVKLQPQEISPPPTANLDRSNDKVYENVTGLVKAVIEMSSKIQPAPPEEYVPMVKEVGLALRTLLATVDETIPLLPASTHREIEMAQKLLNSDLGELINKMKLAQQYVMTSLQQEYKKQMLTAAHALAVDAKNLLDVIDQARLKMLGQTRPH
Compound,"Concentration at which degradation of FAK protein is evident ([1]; PA-TU-8988T cells, 4 hours) [nM]","Concentration of maximal degradation of FAK protein ([1]; PA-TU-8988T cells, 4 hours) [nM]","inhibition at 0.01 µM [1, 7] [%]","inhibition at 0.1 µM [1, 8] [%]",other results
"CNC(=O)c1ccccc1Nc1cc(Nc2ccc(N3CCN(CCCCCCNC(=O)COc4cccc5c4C(=O)N(C4CCC(=O)NC4=O)C5=O)CC3)cc2OC)ncc1C(F)(F)F (stereo not drawn) [Compound 1, 2-((2-((4-(4-(6-(2-((2-(2,6-dioxopiperidin-3-yl)-1,3-dioxoisoindolin-4-yl)oxy)acetamido)hexyl)piperazin-1-yl)-2-methoxyphenyl)amino)-5-(trifluoromethyl)pyridin-4-yl)amino)-N-methylbenzamide]",1,10,85 to 100,85 to 100,"Degradation of FAK protein (in words) ([1]; PA-TU-8988T cells, 4 hours): rapid and pronounced degradation of FAK protein; Degradation of FAK protein in H3122 cells (in words) [2]: pronounced degradation of FAK protein"
"CNC(=O)c1ccccc1Nc1cc(Nc2ccc(N3CCN(CCCCCCNC(=O)COc4cccc5c4C(=O)N(C4CCC(=O)N(C)C4=O)C5=O)CC3)cc2OC)ncc1C(F)(F)F (stereo not drawn) [Compound 2, 2-((2-((2-methoxy-4-(4-(6-(2-((2-(1-methyl-2,6-dioxopiperidin-3-yl)-1,3-dioxoisoindolin-4-yl)oxy)acetamido)hexyl)piperazin-1-yl)phenyl)amino)-5-(trifluoromethyl)pyridin-4-yl)amino)-N-methylbenzamide]",,,0 to 24,0 to 24,"Degradation of FAK protein (in words) ([1]; PA-TU-8988T cells, 4 hours): did not induce degradation of FAK protein"
"CNC(=O)c1ccccc1Nc1cc(Nc2ccc(N3CCN(CCOCCOCCOCCNC(=O)COc4cccc5c4C(=O)N(C4CCC(=O)NC4=O)C5=O)CC3)cc2OC)ncc1C(F)(F)F (stereo not drawn) [Compound 3, 2-((2-((4-(4-(1-((2-(2,6-dioxopiperidin-3-yl)-1,3-dioxoisoindolin-4-yl)oxy)-2-oxo-6,9,12-trioxa-3-azatetradecan-14-yl)piperazin-1-yl)-2-methoxyphenyl)amino)-5-(trifluoromethyl)pyridin-4-yl)amino)-N-methylbenzamide]",,,50 to 69,85 to 100,"Concentration giving modest degradation of FAK protein ([1]; PA-TU-8988T cells, 4 hours): 100 nM"
"CNC(=O)c1ccccc1Nc1cc(Nc2ccc(N3CCN(CCOCCOCCNC(=O)CNc4cccc5c4C(=O)N(C4CCC(=O)NC4=O)C5=O)CC3)cc2OC)ncc1C(F)(F)F (stereo not drawn) [Compound 4, 2-((2-((4-(4-(2-(2-(2-(2-((2-(2,6-dioxopiperidin-3-yl)-1,3-dioxoisoindolin-4-yl)amino)acetamido)ethoxy)ethoxy)ethyl)piperazin-1-yl)-2-methoxyphenyl)amino)-5-(trifluoromethyl)pyridin-4-yl)amino)-N-methylbenzamide]",10,100,70 to 84,85 to 100,
"CNC(=O)c1ccccc1Nc1cc(Nc2ccc(N3CCN(CCCCCCCCNC(=O)CNc4cccc5c4C(=O)N(C4CCC(=O)NC4=O)C5=O)CC3)cc2OC)ncc1C(F)(F)F (stereo not drawn) [Compound 5, 2-((2-((4-(4-(8-(2-((2-(2,6-dioxopiperidin-3-yl)-1,3-dioxoisoindolin-4-yl)amino)acetamido)octyl)piperazin-1-yl)-2-methoxyphenyl)amino)-5-(trifluoromethyl)pyridin-4-yl)amino)-N-methylbenzamide]",1,10,,,
"CNC(=O)c1ccccc1Nc1cc(Nc2ccc(N3CCN(CCCCCCCCNc4cccc5c4C(=O)N(C4CCC(=O)NC4=O)C5=O)CC3)cc2OC)ncc1C(F)(F)F (stereo not drawn) [Compound 6, 2-((2-((4-(4-(8-((2-(2,6-dioxopiperidin-3-yl)-1,3-dioxoisoindolin-4-yl)amino)octyl)piperazin-1-yl)-2-methoxyphenyl)amino)-5-(trifluoromethyl)pyridin-4-yl)amino)-N-methylbenzamide]",10,100,85 to 100,85 to 100,
"CS(=O)(=O)c1cccc(CNc2nc(Nc3ccc(C(=O)NCCCCCCCCNC(=O)COc4cccc5c4C(=O)N(C4CCC(=O)NC4=O)C5=O)cc3)ncc2C(F)(F)F)c1 (stereo not drawn) [Compound 7, N-(8-(2-((2-(2,6-dioxopiperidin-3-yl)-1,3-dioxoisoindolin-4-yl)oxy)acetamido)octyl)-4-((4-((3-(methylsulfonyl)benzyl)amino)-5-(trifluoromethyl)pyrimidin-2-yl)amino)benzamide]",10,100,25 to 49,85 to 100,
"CS(=O)(=O)c1cccc(CNc2nc(Nc3ccc(C(=O)N4CCN(CCCCCNC(=O)COc5cccc6c5C(=O)N(C5CCC(=O)NC5=O)C6=O)CC4)cc3)ncc2C(F)(F)F)c1 (stereo not drawn) [Compound 8, 2-((2-(2,6-dioxopiperidin-3-yl)-1,3-dioxoisoindolin-4-yl)oxy)-N-(5-(4-(4-((4-((3-(methylsulfonyl)benzyl)amino)-5-(trifluoromethyl)pyrimidin-2-yl)amino)benzoyl)piperazin-1-yl)pentyl)acetamide]",,100,,,"Concentration giving modest degradation of FAK protein ([1]; PA-TU-8988T cells, 4 hours): 10 nM; inhibition at 0.01 µM ([1]; 4 h): 0 to 24%; inhibition at 0.1 µM ([1]; 4 h): 25 to 49%"
"CNC(=O)c1ccccc1Nc1nc(Nc2cc(C)c(C3CCN(CCCCCCNC(=O)COc4cccc5c4C(=O)N(C4CCC(=O)NC4=O)C5=O)CC3)cc2OC(C)C)ncc1C(F)(F)F (stereo not drawn) [Compound 10, 2-((2-((4-(1-(6-(2-((2-(2,6-dioxopiperidin-3-yl)-1,3-dioxoisoindolin-4-yl)oxy)acetamido)hexyl)piperidin-4-yl)-2-isopropoxy-5-methylphenyl)amino)-5-(trifluoromethyl)pyrimidin-4-yl)amino)-N-methylbenzamide]",,,,,Degradation of ALK protein in H3122 cells (in words) [3]: degradation of ALK protein; Degradation of FAK protein in H3122 cells (in words) [2]: pronounced degradation of FAK protein
NS(=O)(=O)OC[C@@H]1C[C@@H](n2ccc3c(N[C@H]4CCc5ccccc54)ncnc32)C[C@@H]1O [MLN4924],,,,,Rescue of FAK degradation induced by compound 9 [4]: rescued the degradation induced by compound 9
"CNC(=O)c1ccccc1Nc1cc(Nc2ccc(N3CCOCC3)cc2OC)ncc1C(F)(F)F [VS-4718, reference compound]",,,,,"Degradation of FAK protein (in words) ([1]; PA-TU-8988T cells, 4 hours): did not induce degradation of FAK protein; IC50 [5]: 41.1 nM; IC50 [6]: 20 nM"
CC(C)C[C@H](NC(=O)[C@H](CCc1ccccc1)NC(=O)CN1CCOCC1)C(=O)N[C@@H](Cc1ccccc1)C(=O)N[C@@H](CC(C)C)C(=O)[C@@]1(C)CO1 [carfilzomib],,,,,Rescue of FAK degradation induced by compound 9 [4]: rescued the degradation induced by compound 9
Nc1cccc2c1CN(C1CCC(=O)NC1=O)C2=O (stereo not drawn) [lenalidomide],,,,,Rescue of FAK degradation induced by compound 9 [4]: rescued the degradation induced by compound 9
PF-573228 [reference compound],,,,,"Degradation of FAK protein (in words) ([1]; PA-TU-8988T cells, 4 hours): did not induce degradation of FAK protein"
